In US6596765B2, “Treatment of ocular hypertension and glaucoma” (Sucampo AG, priority 2000, dated 2003):

Key:
[1] = tested on: monkey eye; test: IOP test after a single topical ocular instillation in monkeys (Example 1); format: in vivo, cynomolgus monkeys; conditions: 0.0005% solution, 35 μL/eye; for intraocular pressure lowering effect (in words): compared with vehicle-treated contralateral eye, Student's t-test
Text: This Example is an IOP test using the monkey eye in which about one tenth the clinical dose of latanoprost is compared in IOP reduction with the same dose of 15-keto latanoprost.
The intraocular pressure lowering effects of the 0.0005% solution of 13,14-dihydro-15-keto-17-phenyl-18,19,20-trinor-PGF2α-isopropyl ester (15-keto-latanoprost) and the 0.0005% solution of 13,14-dihydro-17-phenyl-18,19,20-trinor-PGF2α-isopropyl ester (latanoprost) were compared following a single, topical ocular instillation in monkeys.
The solution containing 15-keto-latanoprost or latanoprost at 0.0005% was prepared with the following vehicle. Composition of the vehicle^1) (/mL): NaCl (4.1 mg), NaH2PO4—H2O (4.6 mg), Na2HPO4—2H2O (5.94 mg), Benzalkonium Chloride (0.2 mg) and water for injection
Five male cynomolgus monkeys purchased from Kasyo Co., Ltd. were used. These monkeys were housed individually in cages for monkeys in a room which was maintained at room temperature of 24±1° C., relative humidity of 55±10%, ventilation rate of about 12 times/hour and 12-hour light-dark cycle (fluorescent lighting: 8:00 a.m. to 8:00 p.m.). The animals were given food pellets for monkeys (PS, Oriental Yeast Co., Ltd.), vegetables and fruits, and allowed free access to tap water from an automatic dispenser. The healthy animals without abnormalities in the anterior segment of the eye were used in this study.
Five monkeys were divided into 2 groups of the group 1 (3 monkeys) and group 2 (2 monkeys). […]
The animals were systemically anesthetized by an intramuscular injection of 5 mg/kg of ketamine hydrochloride (Ketalar®50, Sankyo Co., Ltd.), and the anterior segment of both eyes was anesthetized by a instillation of 0.4% oxybuprocaine hydrochloride (Benoxil® 0.4% solution, Santen Pharmaceutical Co., Ltd.). The animals were fixed in a sitting position, and the intraocular pressure was measured by use of an applanation pneumatonograph (Alcon Japan Ltd.) before, and 2, 4, 8, 12 and 24 hours after the instillation. […]
The data were statistically analyzed with Student's t-test.

[2] = tested on: monkey eye; test: IOP after additional instillation 12 hours after instillation of 0.005% latanoprost in monkeys (Example 2); format: in vivo, cynomolgus monkeys; conditions: 30 μL; for effect on IOP of additional instillation, compared with 0.005% latanoprost alone: 0.0005% solution, instilled 12 hours after instillation of 0.005% latanoprost, IOP followed to 32 hours
Text: This Example illustrates the employment of a low dose of 15-keto latanoprost for maintaining a low IOP level following single administration of another IOP reducing agent for obtaining a rapid drop in IOP.
The changes of IOP in 3 different treatment groups were compared to investigate the significance of the presence of 15-keto acid of latanoprost, a 13,14-dihydro-15-keto type metabolite, in maintaining the IOP lowering effect observed after instillation of latanoprost.
15-keto-latanoprost and latanoprost which were synthesized in Ueno Institute for Medical Science were used.
Six male cynomolgus monkeys (body weight: 3.2-3.8 kg) were used. These monkeys were housed individually in cages for monkeys in a monkey rearing room which was maintained at room temperature of 24±1° C., relative humidity of 55±10%, and ventilation of about 12 times/hour and a 12-hour light-dark cycle (fluorescent lighting: 8:00 a.m. to 8:00 p.m.). The animals were given solid food for monkeys (PS, Oriental Yeast Co., Ltd.), vegetables and fruits, and allowed free access to tap water from an automatic dispenser. The healthy animals without abnormalities in the anterior segment were used in this study.
0.0005% and 0.005% latanoprost eye drops and 0.0005% 15-keto-latanoprost eye drops were prepared with a vehicle consisting of the following composition. The composition of the vehicles in 1 mL was as follows: sodium chloride (4.1 mg), sodium hydrogenphosphate-1H2O (4.6 mg), disodium hydrogenphosphate-2H2O (5.94 mg), benzalkonium chloride (0.200 mg) and water for injection (1 mL).
In the present study, changes in IOP after instillation of 0.005% latanoprost alone at the clinical concentration were compared with those in IOP after additional instillation of 0.0005% latanoprost or 0.0005% 15-keto-latanoprost 12 hours after instillation of 0.005% latanoprost to investigate the significance of the presence of a 13,14-dihydro-15-keto type metabolite in maintaining the IOP lowering effect observed after instillation of latanoprost.
The following 3 treatments were given to the right eye of monkeys at the intervals of at least 10 days. […]
After the ocular surface of monkeys was anesthetized with 0.4% oxybuprocaine hydrochloride (Benoxil® 0.4% solution, Santen Pharmaceutical Co., Ltd.) under i.m. systemic anesthesia with 5-7.5 mg/kg of ketamine hydrochloride, IOP was measured with an applanation pneumatonograph (Alcon Japan Ltd.). IOP was measured before instillation and at 4, 8, 12, 16, 20, 24, 28 and 32 hours after instillation of 0.005% latanoprost.

[3] = Ocular side effects of topical application (stated, no method described); format: in vivo; conditions: 15-keto latanoprost at the dosages described herein
[4] = latanoprost at its clinical concentration; cited from earlier work
[5] = single instillation of 0.005% latanoprost (clinical concentration), right eye

Row | Structure (SMILES) | intraocular pressure lowered as compared with the pre-treatment value ([1]; 8 hours after the instillation, n=5) [mmHg] | intraocular pressure lowering effect (in words) [1] | effect on IOP of additional instillation, compared with 0.005% latanoprost alone [2] | ocular side effects (iridic pigmentation, initial IOP spike, hyperemia) [3] | ocular side effects (iris pigmentation, IOP spike, hyperemia) [4] | time at which intraocular pressure returned to the predosing level [2, 5] [h] | time of maximum reduction of intraocular pressure after instillation [2, 5] [h]
1 | CC(C)OC(=O)CCC/C=C\C[C@@H]1[C@@H](CCC(=O)CCc2ccccc2)[C@H](O)C[C@@H]1O [15-keto-latanoprost, 13,14-dihydro-15-keto-17-phenyl-18,19,20-trinor-PGF2α-isopropyl ester] | 2.4 | statistically significant | maintained at significantly low levels | does not cause iridic pigmentation, an initial IOP spike nor any hyperemia | – | – | –
2 | CC(C)OC(=O)CCC/C=C\C[C@@H]1[C@@H](CC[C@@H](O)CCc2ccccc2)[C@H](O)C[C@@H]1O [latanoprost, 13,14-dihydro-17-phenyl-18,19,20-trinor-PGF2α-isopropyl ester] | – | did not lower the intraocular pressure | did not affect IOP | – | can cause pigmentation of the iris, a mild IOP spike and/or mild hyperemia | 24 | 12
